Experiment: Brain tissue concentration of administered d5OT by LC-MS/MS (terminal experiment)
Type: in vivo, rhesus macaques (Macaca mulatta)
Set-up: key to BRAIN d5OT concentration: ND: not detected; +: detected but not quantifiable
Details: for tissue level at time at 148 min: female
Description: Monkeys were divided into three groups, each with two monkeys; each group received the following in a terminal study at the 5th week: Group 1 (Monkeys ID# 1 and ID# 5) received 40 IU of d5OT IN, Group 2 received 80 IU of d5OT IN (Monkeys ID# 2 and ID# 4) and Group 3 received 80 IU of d5OT IV (Monkeys ID# 3 and ID# 6). Animals were perfused on average, 140 ± 7 (mean ± SD) min after d5OT administration (range = 135–149 min) (Table 4). Plasma and CSF were drawn just before administration of d5OT, at the midpoint between d5OT administration and perfusion (~60 min post-d5OT administration), and just before perfusion.
Brain tissue distribution of d5OT, as well as the endogenous concentrations of OT (d0OT), were measured in the following 12 brain regions: cerebellum, brainstem, striatum, amygdala, thalamus, visual cortex, insular cortex, hypothalamus, hippocampus, mPFC (Brodmann areas 32,25,24), dPFC (Brodmann areas 46,9,10), and OFC (Brodmann areas 14,13,12) (Tables 1, 2 and 3).
Brain tissue sample preparation: Samples (~1.5 mg per sample) were individually weighed and placed into 12 mm × 75 mm glass tubes containing 1.5 ml ice-cold 1 M acetic acid and 30 µl of OT-d10 internal standard. Tissues were homogenized on ice and the resulting homogenates were poured into individual 15 ml polystyrene tubes. The original glass tube was rinsed with 1 ml acetonitrile, and this rinse was added to the appropriate 15 ml polystyrene tube containing the homogenate. After all homogenizations were complete, 3 ml acetonitrile was added to each tube and extraction proceeded, as described for the plasma and CSF samples.
LC–MS/MS instrument parameters: Microtiter plates were prepared, as described above, and loaded onto a SIL-30ACMP autosampler set at 4 °C (Shimadzu). Forty microliters of each standard, QC or sample were injected onto an ACE Excel 2 C18-PFP 50 mm × 2.1 mm column (Advanced Chromatography Technologies, LTD, Aberdeen, Scotland) at 50 °C using reversed-phase chromatography. Mobile phase A was 0.1% formic acid in water and mobile phase B was 0.1% formic acid in ACN. The LC time gradient was created using two Nexera LC-30AD pumps (Shimadzu) running at 0.5 ml/min. Chromatography for serum and CSF samples began at 10% B and ended at 16% B at 3.6 min. One minute at 60% B was then required to wash the column, and the pumps re-equilibrated at 10% B for an additional 1.7 min (total run time ~6 min). Outside of the 1.55–3.55 min window during which OT eluted, a divert valve sent the LC effluent to waste.
Heated electrospray […] in positive mode, with scheduled multiple reaction monitoring (MRM) on a Shimadzu LCMS-8050, was used for detection of OT. The interface temperature was 270 °C and heat block temperature was 170 °C. Gas was supplied by a Peak Genius 1051 nitrogen and air generator (Peak Scientific, Inchinnan, UK). Nitrogen gas was used for nebulizing (1 L/min) and drying (8.2 L/min), while air was used for heating (7.8 L/min). A capillary B needle was used in the interface. Needle protrusion was set to 1.25 mm and probe distance was set to 1.0 mm; both were determined empirically. Argon (Airgas, Radnor, PA) was used for the collision-induced dissociation at 330 kPa. The MS/MS conditions for OT were optimized using the automated MRM optimization procedure in LabSolutions software (Shimadzu). We collected two MRM transitions each, for d0OT (1007.40 > 723.40 and 1007.40 > 285.30), d5OT (1012.00 > 723.40 and 1012.00 > 290.35), and d10OT (1017.70 > 723.35 and 1017.70 > 295.40); the first transition listed in each case was used for quantitation, while the second was used as a reference ion. Retention times for d0OT, d5OT, and d10OT were 3.290, 3.270, and 3.253 min, respectively.
The sensitivities of each assay within the method were determined by the lowest and highest concentration calibrators in the calibration curve. The lower limit of quantitation (LLOQ) for d0OT was 10 pg/ml (4 pg/col); the LLOQ for d5OT was 100 pg/ml (40 pg/col). […]

Brain penetrance of d5OT in the striatum, % of the dose delivered IN (40 IU IN, assuming ~20% of delivered volume reaches upper nasal cavity): ~0.03%
BRAIN d5OT concentration (Amygdala, 40 IU IN, monkey #5 (F), perfused 138 min post-dose, LC-MS/MS): +
BRAIN d5OT concentration (Brainstem, 40 IU IN, monkey #1 (F), perfused 148 min post-dose, LC-MS/MS): +
BRAIN d5OT concentration (Brainstem, 80 IU IN, monkey #2 (M), 136 min post-dose, molarity calculated for extracellular fluid volume (20% of brain volume)): < 1 nM
BRAIN d5OT concentration (Brainstem, 80 IU IN, monkey #2 (M), perfused 136 min post-dose, LC-MS/MS): 0.14 pg/mg
BRAIN d5OT concentration (Brainstem, 80 IU IN, monkey #4 (M), 135 min post-dose, molarity calculated for extracellular fluid volume (20% of brain volume)): 1 nM
BRAIN d5OT concentration (Brainstem, 80 IU IV, monkey #6 (F), perfused 135 min post-dose, LC-MS/MS): +
BRAIN d5OT concentration (Cerebellum, 80 IU IN, monkey #4 (M), perfused 135 min post-dose, LC-MS/MS): +
BRAIN d5OT concentration (OFC, 80 IU IN, monkey #2 (M), 136 min post-dose, molarity calculated for extracellular fluid volume (20% of brain volume)): 11 nM
BRAIN d5OT concentration (Striatum, 40 IU IN, monkey #1 (F), 148 min post-dose, molarity calculated for extracellular fluid volume (20% of brain volume)): 13 nM
BRAIN d5OT concentration (Striatum, 40 IU IN, monkey #5 (F), perfused 138 min post-dose, LC-MS/MS): +
BRAIN d5OT concentration (Thalamus, 40 IU IN, monkey #1 (F), 148 min post-dose, molarity calculated for extracellular fluid volume (20% of brain volume)): 1 nM
d5OT concentration in striatum (highest), comparable to that in the OFC (after IN d5OT, Table 1): ~ 10 nM
BRAIN d5OT concentration (dPFC, 40 IU IN, monkey #5 (F), perfused 138 min post-dose, LC-MS/MS): +
BRAIN d5OT concentration (dPFC, 80 IU IN, monkey #4 (M), perfused 135 min post-dose, LC-MS/MS): +
BRAIN d5OT concentration (dPFC, 80 IU IV, monkey #6 (F), perfused 135 min post-dose, LC-MS/MS): +
tissue level at time at 148 min (rhesus monkey, brain (striatum), Striatum, 40 IU IN, monkey #1 (F), perfused 148 min post-dose, LC-MS/MS): 2.41 ng/g
tissue level at time at 148 min (rhesus monkey, brain (thalamus), Thalamus, 40 IU IN, monkey #1 (F), perfused 148 min post-dose, LC-MS/MS): 0.23 ng/g
BRAIN d5OT concentration (mPFC, 80 IU IV, monkey #6 (F), perfused 135 min post-dose, LC-MS/MS): +
tissue level at time at 136 min (male, rhesus monkey, brain (OFC), OFC, 80 IU IN, monkey #2 (M), perfused 136 min post-dose, LC-MS/MS): 2.04 ng/g
tissue level at time at 2.25 h (male, rhesus monkey, brain (brainstem), Brainstem, 80 IU IN, monkey #4 (M), perfused 135 min post-dose, LC-MS/MS): 0.24 ng/g
Brain concentrations of d5OT after IN delivery (on the order of, Table 1): ≥ 1 nM
Compound: CC[C@H](C)[C@@H]1NC(=O)[C@H](Cc2ccc(O)cc2)NC(=O)[C@@H](N)CSSC[C@@H](C(=O)N2CCC[C@H]2C(=O)N[C@@H](CC(C)C)C(=O)NCC(N)=O)NC(=O)[C@H](CC(N)=O)NC(=O)[C@H](CCC(N)=O)NC1=O [d5OT]
